The supplement of paper PMC11061612

Tests used:
Assay in all cases: combination Emax (second highest fraction inhibited in the dose matrix, 72 h); higher = more inhibition; extreme values may be limits of the assay
[1] = system: SW1573 (Lung Adenocarcinoma)
Procedure, shortened: (§1)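 Cell lines grown in DMEM/F12 or RPMI with 10% FBS were plated in 1536-well plates and held 24 hours at 37°C, 5% CO2 before 72 hours of exposure to two-drug dose matrices, with DMSO typically at 0.2%. CellTiter-Glo 2.0 luminescence gave viability, which was converted to inhibition. Vehicle wells were set to 0 and blank wells to 1. Combination Emax is the second-highest inhibition in the matrix, and Bliss excess is the observed combination effect minus the expected EA + EB − EA·EB, where EA and EB are the single-agent effects.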

[2] = system: HuCCT1 (Biliary Tract Carcinoma)
Procedure, shortened: as §1

[3] = system: L-428 (Hodgkin's Lymphoma)
Procedure, shortened: as §1

LOXIMVI (Melanoma) = system: LOXIMVI (Melanoma)
Procedure, shortened: as §1

[4] = system: OV-56 (Ovarian Carcinoma)
Procedure, shortened: as §1

[5] = system: NCI-H209 (Small Cell Lung Carcinoma)
Procedure, shortened: as §1

[6] = system: LS-123 (Colorectal Carcinoma)
Procedure, shortened: as §1

[7] = system: Hs-746T (Gastric Carcinoma)
Procedure, shortened: as §1

[8] = system: OE21 (Esophageal Squamous Cell Carcinoma)
Procedure, shortened: as §1

CAL-72 (Osteosarcoma) = system: CAL-72 (Osteosarcoma)
Procedure, shortened: as §1

[9] = system: NCI-H524 (Small Cell Lung Carcinoma)
Procedure, shortened: as §1

[10] = system: HuH-7 (Hepatocellular Carcinoma)
Procedure, shortened: as §1

[11] = system: SAS (Oral Cavity Carcinoma)
Procedure, shortened: as §1

[12] = system: CAL-33 (Oral Cavity Carcinoma)
Procedure, shortened: as §1

[13] = system: NCI-H1568 (Lung Adenocarcinoma)
Procedure, shortened: as §1

[14] = system: Detroit562 (Head and Neck Carcinoma)
Procedure, shortened: as §1

[15] = system: HeLa (Cervical Carcinoma)
Procedure, shortened: as §1

[16] = system: FTC-133 (Thyroid Gland Carcinoma)
Procedure, shortened: as §1

NCI-H2052 (Mesothelioma) = system: NCI-H2052 (Mesothelioma)
Procedure, shortened: as §1

NCI-H2722 (Mesothelioma) = system: NCI-H2722 (Mesothelioma)
Procedure, shortened: as §1

| Structure (SMILES) | combination Emax [1] | combination Emax [2] | combination Emax [3] | combination Emax (LOXIMVI (Melanoma)) | combination Emax [4] | combination Emax [5] | combination Emax [6] | combination Emax [7] | combination Emax [8] | combination Emax (CAL-72 (Osteosarcoma)) | combination Emax [9] | combination Emax [10] | combination Emax [11] | combination Emax [12] | combination Emax [13] | combination Emax [14] | combination Emax [15] | combination Emax [16] | combination Emax (NCI-H2052 (Mesothelioma)) | combination Emax (NCI-H2722 (Mesothelioma)) |
| --- | --- | --- | --- | --- | --- | --- | --- | --- | --- | --- | --- | --- | --- | --- | --- | --- | --- | --- | --- | --- |
| Cn1cnc2c(F)c(Nc3ccc(Br)cc3Cl)c(C(=O)NOCCO)cc21 [Selumetinib] + C[C@@H]1COCCN1C2=NC(=NC(=C2)C3(CC3)[S@](=N)(=O)C)C4=C5C=CNC5=NC=C4 [AZD6738] (first compound max 10 µM, 7x7, partner max 10 µM) | 0.284 | 0.703 | 0.69 | 0.778 | 0.29 | 0.878 | 0.517 | 0.579 | 0.837 | 0.752 | 0.681 | 0.374 | 0.806 | 0.826 | 0.574 | 0.88 | 0.486 | 0.724 | 0.395 | 0.277 |
| CC(=O)Nc1cccc(-n2c(=O)n(C3CC3)c(=O)c3c(Nc4ccc(I)cc4F)n(C)c(=O)c(C)c32)c1 [Trametinib] + Cc1nc(-c2cn3c(n2)-c2ccc(-c4cnn(C(C)(C)C(N)=O)c4)cc2OCC3)n(C(C)C)n1 [Taselisib] (first compound max 1 µM, 7x7, partner max 10 µM) | 0.407 | 0.803 | 0.204 | 1 | 0.607 | 0.218 | 0.885 | 0.606 | 0.952 | 0.85 | 0.829 | 0.977 | 0.882 | 0.989 | 0.763 | 0.954 | 0.42 | 0.338 | 0.535 | 0.666 |
| CC1(C)CCC(CN2CCN(c3ccc(C(=O)NS(=O)(=O)c4ccc(NCC5CCOCC5)c([N+](=O)[O-])c4)c(Oc4cnc5[nH]ccc5c4)c3)CC2)=C(c2ccc(Cl)cc2)C1 [Venetoclax] + C1CN(CCC1(C(=O)N[C@@H](CCO)C2=CC=C(C=C2)Cl)N)C3=NC=NC4=C3C=CN4 [Capivasertib] (first compound max 1 µM, 7x7, partner max 3 µM) | 0.257 | 0.24 | 0.0426 | 0.247 | 0.153 | 0.456 | 0.34 | 0.275 | 0.48 | 0.554 | 0.166 | 0.17 | 0.286 | 0.276 | 0.133 | 0.346 | 0.22 | 0.358 | 0.329 | 0.162 |
| CC1(C)CCC(CN2CCN(c3ccc(C(=O)NS(=O)(=O)c4ccc(NCC5CCOCC5)c([N+](=O)[O-])c4)c(Oc4cnc5[nH]ccc5c4)c3)CC2)=C(c2ccc(Cl)cc2)C1 [Venetoclax] + C=CCn1c(=O)c2cnc(Nc3ccc(N4CCN(C)CC4)cc3)nc2n1-c1cccc(C(C)(C)O)n1 [AZD1775] (first compound max 1 µM, partner max 1 µM) | 0.407 | 0.69 | 0.851 | 0.622 | 0.168 | 0.978 | 0.633 | 0.481 | 0.636 | 0.924 | 0.895 | 0.386 | 0.761 | 0.761 | 0.479 | 0.545 | 0.573 | 0.86 | 0.249 | 0.311 |
| CC1(C)CCC(CN2CCN(c3ccc(C(=O)NS(=O)(=O)c4ccc(NCC5CCOCC5)c([N+](=O)[O-])c4)c(Oc4cnc5[nH]ccc5c4)c3)CC2)=C(c2ccc(Cl)cc2)C1 [Venetoclax] + CCN(CCO)CCCOc1ccc2c(Nc3cc(CC(=O)Nc4cccc(F)c4)[nH]n3)ncnc2c1 [AZD2811] (first compound max 1 µM, 7x7, partner max 1 µM) | 0.286 | 0.217 | 0.296 | 0.21 | 0.195 | 0.974 | 0.162 | 0.161 | 0.159 | 0.673 | 0.985 | 0.194 | 0.204 | 0.594 | 0.209 | 0.52 | 0.279 | 0.495 | 0.181 | 0.23 |
| CC1(C)CCC(CN2CCN(c3ccc(C(=O)NS(=O)(=O)c4ccc(NCC5CCOCC5)c([N+](=O)[O-])c4)c(Oc4cnc5[nH]ccc5c4)c3)CC2)=C(c2ccc(Cl)cc2)C1 [Venetoclax] + CN(C)CCCOc1ccc(-c2ccc3ncc4c(c3c2)n(C2CCOCC2)c(=O)n4C)cn1 [AZD0156] (first compound max 1 µM, 7x7, partner max 1 µM) | 0.201 | 0.231 | 0.176 | 0.588 | 0.183 | 0.528 | 0.205 | 0.226 | 0.162 | 0.687 | 0.321 | 0.26 | 0.256 | 0.178 | 0.319 | 0.212 | 0.188 | 0.167 | 0.235 | 0.175 |
| CC1(C)CCC(CN2CCN(c3ccc(C(=O)NS(=O)(=O)c4ccc(NCC5CCOCC5)c([N+](=O)[O-])c4)c(Oc4cnc5[nH]ccc5c4)c3)CC2)=C(c2ccc(Cl)cc2)C1 [Venetoclax] + COc1cc(Nc2ncc3c(n2)-c2ccc(Cl)cc2C(c2c(F)cccc2OC)=NC3)ccc1C(=O)O [Alisertib] (first compound max 1 µM, 7x7, partner max 10 µM) | 0.168 | 0.365 | 0.363 | 0.5 | 0.225 | 0.891 | 0.385 | 0.65 | 0.382 | 0.591 | 0.991 | 0.791 | 0.39 | 0.714 | 0.259 | 0.754 | 0.702 | 0.416 | 0.425 | 0.281 |
| CC1(C)CCC(CN2CCN(c3ccc(C(=O)NS(=O)(=O)c4ccc(NCC5CCOCC5)c([N+](=O)[O-])c4)c(Oc4cnc5[nH]ccc5c4)c3)CC2)=C(c2ccc(Cl)cc2)C1 [Venetoclax] + C[C@@H]1COCCN1C2=NC(=NC(=C2)C3(CC3)[S@](=N)(=O)C)C4=C5C=CNC5=NC=C4 [AZD6738] (first compound max 1 µM, 7x7, partner max 10 µM) | 0.351 | 0.664 | 0.779 | 0.723 | 0.566 | 0.981 | 0.587 | 0.508 | 0.828 | 0.902 | 0.748 | 0.424 | 0.834 | 0.862 | 0.553 | 0.829 | 0.563 | 0.779 | 0.431 | 0.384 |
| CC1(C)CCC(CN2CCN(c3ccc(C(=O)NS(=O)(=O)c4ccc(NCC5CCOCC5)c([N+](=O)[O-])c4)c(Oc4cnc5[nH]ccc5c4)c3)CC2)=C(c2ccc(Cl)cc2)C1 [Venetoclax] + C[C@@H](Nc1cc(F)cc(F)c1)c1cc(C(=O)N(C)C)cc2c(=O)cc(N3CCOCC3)oc12 [AZD8186] (first compound max 1 µM, 7x7, partner max 3 µM) | 0.136 | 0.185 | 0.196 | 0.129 | 0.0859 | 0.515 | 0.256 | 0.269 | 0.109 | 0.406 | 0.535 | 0.144 | 0.282 | 0.149 | 0.0798 | 0.137 | 0.124 | 0.182 | 0.217 | 0.17 |
| CC1(C)CCC(CN2CCN(c3ccc(C(=O)NS(=O)(=O)c4ccc(NCC5CCOCC5)c([N+](=O)[O-])c4)c(Oc4cnc5[nH]ccc5c4)c3)CC2)=C(c2ccc(Cl)cc2)C1 [Venetoclax] + Cc1cc2ncnn2cc1Nc1ncc2c(n1)n(C1CCOCC1)c(=O)n2C [AZD7648] (first compound max 1 µM, 7x7, partner max 10 µM) | 0.144 | 0.284 | 0.215 | 0.254 | 0.15 | 0.642 | 0.313 | 0.226 | 0.206 | 0.643 | 0.308 | 0.221 | 0.256 | 0.329 | 0.135 | 0.304 | 0.199 | 0.182 | 0.381 | 0.25 |
| CC1(C)CCC(CN2CCN(c3ccc(C(=O)NS(=O)(=O)c4ccc(NCC5CCOCC5)c([N+](=O)[O-])c4)c(Oc4cnc5[nH]ccc5c4)c3)CC2)=C(c2ccc(Cl)cc2)C1 [Venetoclax] + Cn1cnc2c(F)c(Nc3ccc(Br)cc3Cl)c(C(=O)NOCCO)cc21 [Selumetinib] (first compound max 1 µM, 7x7, partner max 3 µM) | 0.0752 | 0.38 | 0.137 | 0.571 | 0.108 | 0.436 | 0.374 | 0.242 | 0.337 | 0.403 | 0.113 | 0.122 | 0.368 | 0.266 | 0.0499 | 0.321 | 0.103 | 0.133 | 0.213 | 0.14 |
